{
  "source": "paper PMC8950173",
  "about": "(Pharmaceuticals, 2022)",
  "assay": "Lipophilicity logD7.4, shake-flask method n-octanol/PBS",
  "assay_type": "physicochemical",
  "settings": "n-octanol/PBS pH 7.4, room temperature, n = 8",
  "experimental": "Radiochemical stability of [^18F]BA3 was investigated in 0.9% NaCl solution (containing 10% EtOH) and in n-octanol at room temperature for 2 h. Samples were analysed by radio-RP-HPLC (see quality control). The LogD7.4 value of [^18F]BA3 was experimentally determined in n-octanol/phosphate-buffered saline (PBS, pH = 7.4) at room temperature by the shake-flask method as described previously. Briefly, small tracer amounts (~800 kBq) were added to a mixture of 3 mL n-octanol and 3 mL PBS. After shaking for 20 min, the samples were centrifuged (10,000 rpm, 5 min) and 1 mL aliquots of the organic as well as aqueous layer were taken and measured in a gamma counter (1480 WIZARD, Perkin Elmer, Turku, Finland). Another 1 mL aliquot of the organic layer was mixed with 2 mL n-octanol and 3 mL PBS and subjected to the same procedure until constant partition coefficient values had been obtained. The measurement was performed twice in quadruplicate.",
  "data": [
    {"molecule": "CC([18F])C(=O)NCc1ccc(C(=O)Nc2cc(-c3ccsc3)ccc2N)cc1", "note": "(stereo not shown) [[^18F]BA3]", "values": [
      {"measurement": "logD", "result": "1.75 ± 0.16"}
    ]}
  ]
}
